According to publication PMC9732253, “Inhibition of the Phosphatidylinositol-3 Kinase Pathway Using Bimiralisib in Loss-of-Function NOTCH1-Mutant Head and Neck Cancer” (The Oncologist, 2022):
Like-named read-outs stand apart in the source and are kept apart here.

Experiments:
[1] = Phase II trial, PK analysis: pre-dose and 1 h post-dose blood levels by HPLC; type: in vivo, human; settings: for Cmax: human, serum, 140 mg; for Trough: pre-dose
Method: Blood was collected before oral dose administration and 1 hour after oral dose administration on days 1, 8, 22, 43, and 64 after the start of therapy. Bimiralisib levels were determined as previously described using high-performance liquid chromatography[8-11] by Charles River Laboratories (Ashland, Ohio). The pre-dose levels were the trough levels and post-dose levels were the assumed peak serum concentration (Cmax) values. Cmax and trough accumulation ratios were calculated by dividing each patient’s treatment day concentration by their initial available drug concentration—day 1 for Cmax and day 8 for trough. Statistical differences among groups were identified by analysis of variance using Statistica version 13.1 (TIBCO Software Inc., Palo Alto, California); P < .05 was considered statistically significant

[2] = cited from earlier work
mTOR = settings: cited from earlier work
PI3Kα = settings: cited from earlier work
PI3Kβ = settings: compared with PI3Kα and mTOR; cited from earlier work

## Nc1cc(C(F)(F)F)c(-c2nc(N3CCOCC3)nc(N3CCOCC3)n2)cn1 [Bimiralisib, 5-(4,6-dimorpholino-1,3,5-triazin-2-yl)-4-(trifluoromethyl)pyridin-2-amine]
[1]; oral, 140-mg dose, current study, read-out: Maximum Cmax value
  Cmax: 970 ng/mL
[1]; po, median, Day 1 (n = 6), 1 hour after 140 mg oral dose, read-out: C max
  Cmax: 574 ng/mL
[1]; po, median, Day 8 (n = 6), 1 hour after oral dose, read-out: C max
  Cmax: 574 ng/mL
[1]; po, median, Day 22 (n = 5), 1 hour after oral dose, read-out: C max
  Cmax: 691 ng/mL
[1]; po, median, Day 43 (n = 4), 1 hour after oral dose, read-out: C max
  Cmax: 526 ng/mL
[1]; po, median, Day 64 (n = 5), 1 hour after oral dose, read-out: C max
  Cmax: 546 ng/mL
[1]; intermittent dosing regimen
  Cmax accumulation: not observed
[1]; median, Day 8 (n = 6)
  Trough: 62 ng/mL
[1]; median, Day 8 vs day 1
  C max accumulation ratio: 0.78
[1]; median, Day 22 (n = 5)
  Trough: 101 ng/mL
[1]; median, Day 22 vs day 1
  C max accumulation ratio: 1.18
[1]; median, Day 22 vs day 8
  Trough accumulation ratio: 1.11
[1]; median, Day 43 (n = 4)
  Trough: 11.6 ng/mL
[1]; median, Day 43 vs day 1
  C max accumulation ratio: 0.82
[1]; median, Day 43 vs day 8
  Trough accumulation ratio: 0.94
[1]; median, Day 64 (n = 5)
  Trough: 139 ng/mL
[1]; median, Day 64 vs day 1
  C max accumulation ratio: 0.94
[1]; median, Day 64 vs day 8
  Trough accumulation ratio: 0.63
[2]; after oral administration
  Time of maximum plasma concentration, latest: ≤ 24 h
[2]; dose of 150 mg, ref 11 (Wicki et al)
  Highest Cmax: 998 ng/mL
[2]; in vivo
  Terminal half-life: 40 h
[2]; most humans, oral
  Time of maximum plasma concentration after a dose: 1 to 2 h
mTOR
  Inhibition of mTOR: potently inhibits
PI3Kα
  Inhibition of PI3Kα: potently inhibits
PI3Kβ
  Potency against PI3Kβ: less potency
